In brackets after ≈: the same amount, converted by molar mass. Several values for one entry are separate records, joined by “and”; a condition that tells them apart may be missing. Identical values can stand only once.
How the values were obtained:
[1] = PDS solubility (Chemical Method 1, UV-visible absorbance of saturated solution); type: physicochemical; conditions: thermodynamic from solid; pH 6.5 aqueous phosphate buffer, 5% glyme
Experimental: Solubility of a test compound of the present invention refers to solubility of the compound in a solvent mixture containing ethylene glycol dimethylether (“glyme”) and pH 6.5 aqueous phosphate buffer. The solubility was determined by measuring ultraviolet-visible absorbance of a saturated solution of the compound and comparing the absorbance value to absorbance values obtained for four standard solutions of the compound having known concentrations plotted on a 4-point ultraviolet-visible standard curve. […]
The prepared 96-well plate was transferred to a 96-well ultraviolet-visible plate reader, and the wells were scanned over wavelengths of from 220 nm to 350 nm with a step size of 2 nm. The ultraviolet-visible data (i.e., data generated at the same wavelength) were electronically exported to a spreadsheet and absorbance data for the filtrate of the saturated solution measured at one wavelength (i.e., the data that had the best linear fit as calculated by the highest regression coefficient, typically 0.98 or higher) and the corresponding standards absorbance data measured at the same wavelength were plotted as a standard absorbance-concentration curve based on the Lambert-Beer law. […] The calculated solubility was expressed as in milligrams of test compound in milliliters of solvent. […]

MMP-13 catalytic domain = molecular target: T1, MMP-13 catalytic domain (Homo sapiens, UniProt P45452); experiment: MMP-13 catalytic domain thiopeptolide hydrolysis inhibition (Biological Method 1); type: biochemical; conditions: HEPES pH 7.0, 22° C.; read-out: MMP-13CD IC50
T1 construct: use the catalytic domain of the MMP-13 enzyme, namely matrix metalloproteinase-13 catalytic domain
Excerpt: (§1) In general, the MMP inhibition assays measure the amount by which a test compound reduces the hydrolysis of a thiopeptolide substrate catalyzed by a matrix metalloproteinase enzyme. Such assays are described in detail by Ye et al., in Biochemistry, 1992;31(45):11231-11235, which is incorporated herein by reference.
Some of the particular methods described below use the catalytic domain of the MMP-13 enzyme, namely matrix metalloproteinase-13 catalytic domain (“MMP-13CD”), rather than the corresponding full-length enzyme, MMP-13. It has been shown previously by Ye Qi-Zhuang, Hupe D., and Johnson L. (Current Medicinal Chemistry, 1996;3:407-418) that inhibitor activity against a catalytic domain of an MMP is predictive of the inhibitor activity against the respective full-length MMP enzyme.
Thiopeptolide substrates show virtually no decomposition or hydrolysis at or below neutral pH in the absence of a matrix metalloproteinase enzyme. A typical thiopeptolide substrate commonly utilized for assays is Ac-Pro-Leu-Gly-thioester-Leu-Leu-Gly-OEt. A 100 μL assay mixture will contain 50 mM of N-2-hydroxyethylpiperazine-N′-2-ethanesulfonic acid buffer (“HEPES,” pH 7.0), 10 mM CaCl2, 100 μM thiopeptolide substrate, and 1 mM 5,5′-dithio-bis-(2-nitrobenzoic acid) (DTNB). The thiopeptolide substrate concentration may be varied, for example from 10 to 800 μM to obtain Km and Kcat values. The change in absorbance at 405 nm is monitored on a Thermo Max microplate reader (molecular Devices, Menlo Park, Calif.) at room temperature (22° C.). The calculation of the amount of hydrolysis of the thiopeptolide substrate is based on E412=13600 M^−1 cm^−1 for the DTNB-derived product 3-carboxy-4-nitrothiophenoxide. Assays are carried out with and without matrix metalloproteinase inhibitor compounds, and the amount of hydrolysis is compared for a determination of inhibitory activity of the test compounds. […]

MMP-1 full-length = molecular target: T2, MMP-1 full-length (Homo sapiens, UniProt P03956); experiment: MMP-1 full-length thiopeptolide hydrolysis inhibition; type: biochemical; conditions: read-out: MMP-1FL IC50
T2 construct: have been assayed with MMP-1 full-length, MMP-2 full-length
T2 sequence (P03956 100-469): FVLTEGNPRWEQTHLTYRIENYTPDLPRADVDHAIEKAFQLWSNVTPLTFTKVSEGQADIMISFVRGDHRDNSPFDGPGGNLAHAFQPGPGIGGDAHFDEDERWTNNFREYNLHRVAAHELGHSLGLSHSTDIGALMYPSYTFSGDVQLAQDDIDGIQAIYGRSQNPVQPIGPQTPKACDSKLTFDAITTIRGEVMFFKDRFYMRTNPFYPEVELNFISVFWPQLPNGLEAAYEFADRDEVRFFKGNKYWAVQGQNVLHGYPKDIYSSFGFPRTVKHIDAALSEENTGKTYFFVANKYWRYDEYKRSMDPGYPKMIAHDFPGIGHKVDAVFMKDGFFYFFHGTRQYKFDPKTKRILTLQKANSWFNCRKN
Excerpt: as §1
(§2) Thiopeptolide substrates show virtually no decomposition or hydrolysis at or below neutral pH in the absence of a matrix metalloproteinase enzyme. A typical thiopeptolide substrate commonly utilized for assays is Ac-Pro-Leu-Gly-thioester-Leu-Leu-Gly-OEt. A 100 μL assay mixture will contain 50 mM of N-2-hydroxyethylpiperazine-N′-2-ethanesulfonic acid buffer (“HEPES,” pH 7.0), 10 mM CaCl2, 100 μM thiopeptolide substrate, and 1 mM 5,5′-dithio-bis-(2-nitrobenzoic acid) (DTNB). The thiopeptolide substrate concentration may be varied, for example from 10 to 800 μM to obtain Km and Kcat values. The change in absorbance at 405 nm is monitored on a Thermo Max microplate reader (molecular Devices, Menlo Park, Calif.) at room temperature (22° C.). The calculation of the amount of hydrolysis of the thiopeptolide substrate is based on E412=13600 M^−1 cm^−1 for the DTNB-derived product 3-carboxy-4-nitrothiophenoxide. Assays are carried out with and without matrix metalloproteinase inhibitor compounds, and the amount of hydrolysis is compared for a determination of inhibitory activity of the test compounds.
(§3) Test compounds were evaluated at various concentrations in order to determine their respective IC50 values, the micromolar concentration of compound required to cause a 50% inhibition of catalytic activity of the respective enzyme.
(§4) The test described above for the inhibition of MMP-13 may also be adapted and used to determine the ability of the compounds of formula (I) to inhibit the matrix metalloproteases MMP-1, MMP-2, MMP-3, MMP-7, MMP-9, MMP-12, MMP-14, and MMP-17. […]

MMP-2 full-length = molecular target: T3, MMP-2 full-length (Homo sapiens, UniProt P08253); experiment: MMP-2 full-length thiopeptolide hydrolysis inhibition; type: biochemical; conditions: read-out: MMP-2FL IC50
T3 construct: further screened with full-length MMP-2, full-length MMP-7, full-length MMP-9
T3 sequence (P08253 110-660): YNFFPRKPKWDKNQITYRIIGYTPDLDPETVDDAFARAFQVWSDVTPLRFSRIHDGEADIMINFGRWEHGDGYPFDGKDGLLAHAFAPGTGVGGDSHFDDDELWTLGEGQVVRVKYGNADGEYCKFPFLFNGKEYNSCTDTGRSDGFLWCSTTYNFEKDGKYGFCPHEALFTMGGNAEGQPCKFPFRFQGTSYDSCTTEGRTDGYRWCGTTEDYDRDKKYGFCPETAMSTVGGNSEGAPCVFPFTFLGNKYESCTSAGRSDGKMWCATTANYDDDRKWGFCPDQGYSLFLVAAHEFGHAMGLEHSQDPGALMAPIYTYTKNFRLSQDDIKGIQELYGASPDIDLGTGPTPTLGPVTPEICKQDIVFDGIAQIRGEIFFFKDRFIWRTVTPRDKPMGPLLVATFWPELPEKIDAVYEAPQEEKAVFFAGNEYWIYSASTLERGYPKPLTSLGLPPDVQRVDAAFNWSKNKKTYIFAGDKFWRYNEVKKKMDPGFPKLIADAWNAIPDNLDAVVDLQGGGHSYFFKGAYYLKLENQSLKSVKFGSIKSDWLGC
Excerpt: as §1
Thiopeptolide substrates show virtually no decomposition or hydrolysis at or below neutral pH in the absence of a matrix metalloproteinase enzyme. A typical thiopeptolide substrate commonly utilized for assays is Ac-Pro-Leu-Gly-thioester-Leu-Leu-Gly-OEt. A 100 μL assay mixture will contain 50 mM of N-2-hydroxyethylpiperazine-N′-2-ethanesulfonic acid buffer (“HEPES,” pH 7.0), 10 mM CaCl2, 100 μM thiopeptolide substrate, and 1 mM 5,5′-dithio-bis-(2-nitrobenzoic acid) (DTNB). The thiopeptolide substrate concentration may be varied, for example from 10 to 800 μM to obtain Km and Kcat values. The change in absorbance at 405 nm is monitored on a Thermo Max microplate reader (molecular Devices, Menlo Park, Calif.) at room temperature (22° C.). The calculation of the amount of hydrolysis of the thiopeptolide substrate is based on E412=13600 M^−1 cm^−1 for the DTNB-derived product 3-carboxy-4-nitrothiophenoxide. […]

MMP-3 catalytic domain = molecular target: T4, MMP-3 catalytic domain (Homo sapiens, UniProt P08254); experiment: MMP-3 catalytic domain thiopeptolide hydrolysis inhibition; type: biochemical; conditions: MES buffer pH 6.0; read-out: MMP-3CD IC50
T4 construct: MMP-2 full-length, MMP-3 catalytic domain, MMP-7 full-length
Excerpt: as §1, §2, §3
The assay buffer used with MMP-3CD was 50 mM N-morpholinoethane sulfonate (“MES”) at pH 6.0 rather than the HEPES buffer at pH 7.0 described above.
as §4

MMP-7 full-length = molecular target: T5, MMP-7 full-length (Homo sapiens, UniProt P09237); experiment: MMP-7 full-length thiopeptolide hydrolysis inhibition; type: biochemical; conditions: read-out: MMP-7FL IC50
T5 construct: further screened with full-length MMP-2, full-length MMP-7, full-length MMP-9
T5 sequence (P09237 95-267): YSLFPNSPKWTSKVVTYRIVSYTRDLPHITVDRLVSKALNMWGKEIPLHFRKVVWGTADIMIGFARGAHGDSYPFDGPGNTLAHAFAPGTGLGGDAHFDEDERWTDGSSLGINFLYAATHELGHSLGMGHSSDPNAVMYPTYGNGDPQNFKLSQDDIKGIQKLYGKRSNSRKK
Excerpt: as §1, §2, §3, §4

MMP-8 catalytic domain = molecular target: T6, MMP-8 catalytic domain (Homo sapiens, UniProt P22894); experiment: MMP-8 catalytic domain thiopeptolide hydrolysis inhibition; type: biochemical; conditions: read-out: MMP-8CD IC50
T6 construct: MMP-7 full-length, MMP-8 catalytic domain, MMP-9 full-length
Excerpt: as §1, §2, §3
Certain compounds of formula (I) have been assayed with MMP-1 full-length, MMP-2 full-length, MMP-3 catalytic domain, MMP-7 full-length, MMP-8 catalytic domain, MMP-9 full-length, MMP-12 catalytic domain, and MMP-14 catalytic domain.

MMP-9 full-length = molecular target: T7, MMP-9 full-length (Homo sapiens, UniProt P14780); experiment: MMP-9 full-length thiopeptolide hydrolysis inhibition; type: biochemical; conditions: read-out: MMP-9FL IC50
T7 construct: further screened with full-length MMP-2, full-length MMP-7, full-length MMP-9
Excerpt: as §1, §2, §3, §4

MMP-12 catalytic domain = molecular target: T8, MMP-12 catalytic domain (Homo sapiens, UniProt P39900); experiment: MMP-12 catalytic domain thiopeptolide hydrolysis inhibition; type: biochemical; conditions: read-out: MMP-12CD IC50
T8 construct: MMP-9 full-length, MMP-12 catalytic domain, and MMP-14 catalytic domain
Excerpt: as §1, §2, §3, §4

MMP-14 catalytic domain = molecular target: T9, MMP-14 catalytic domain (Homo sapiens, UniProt P50281); experiment: MMP-14 catalytic domain thiopeptolide hydrolysis inhibition; type: biochemical; conditions: read-out: MMP-14CD IC50
T9 construct: MMP-9 full-length, MMP-12 catalytic domain, and MMP-14 catalytic domain
Excerpt: as §1, §2, §3, §4

T6 sequence (P22894 100-262 limits assumed, species assumed): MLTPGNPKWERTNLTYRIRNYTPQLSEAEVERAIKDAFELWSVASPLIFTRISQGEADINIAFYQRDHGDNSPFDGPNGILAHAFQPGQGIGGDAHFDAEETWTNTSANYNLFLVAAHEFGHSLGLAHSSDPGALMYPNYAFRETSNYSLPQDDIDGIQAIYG
T8 sequence (P39900 106-263 limits assumed, species assumed): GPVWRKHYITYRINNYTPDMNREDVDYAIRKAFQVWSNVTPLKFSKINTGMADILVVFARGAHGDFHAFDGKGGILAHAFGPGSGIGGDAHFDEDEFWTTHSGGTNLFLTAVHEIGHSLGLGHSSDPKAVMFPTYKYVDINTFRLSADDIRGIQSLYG
T4 sequence (P08254 100-272 limits assumed, species assumed): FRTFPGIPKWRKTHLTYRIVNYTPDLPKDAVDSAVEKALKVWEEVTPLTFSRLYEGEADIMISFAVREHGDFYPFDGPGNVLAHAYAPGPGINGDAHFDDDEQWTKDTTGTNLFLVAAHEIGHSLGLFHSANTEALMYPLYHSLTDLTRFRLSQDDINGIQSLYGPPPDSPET
T7 sequence (P14780 94-707, species assumed): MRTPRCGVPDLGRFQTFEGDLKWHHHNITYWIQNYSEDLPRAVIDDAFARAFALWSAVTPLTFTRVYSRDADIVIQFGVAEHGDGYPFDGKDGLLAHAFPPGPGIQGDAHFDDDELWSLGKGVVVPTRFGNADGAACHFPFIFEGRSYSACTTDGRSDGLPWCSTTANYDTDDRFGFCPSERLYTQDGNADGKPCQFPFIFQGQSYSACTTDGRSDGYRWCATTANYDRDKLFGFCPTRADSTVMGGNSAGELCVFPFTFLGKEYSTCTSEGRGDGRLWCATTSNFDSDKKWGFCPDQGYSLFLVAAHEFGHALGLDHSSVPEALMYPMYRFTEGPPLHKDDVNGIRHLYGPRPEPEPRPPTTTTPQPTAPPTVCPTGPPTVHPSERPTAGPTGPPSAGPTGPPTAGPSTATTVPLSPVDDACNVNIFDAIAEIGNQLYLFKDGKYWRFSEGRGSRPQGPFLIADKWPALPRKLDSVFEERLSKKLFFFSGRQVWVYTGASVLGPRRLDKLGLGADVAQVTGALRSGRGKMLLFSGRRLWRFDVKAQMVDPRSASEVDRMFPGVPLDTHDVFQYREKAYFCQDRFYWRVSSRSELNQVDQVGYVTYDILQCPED

| Structure (SMILES) | solubility [1] [µg/mL] | IC50 (MMP-13 catalytic domain) | IC50 (MMP-1 full-length) [µM] | IC50 (MMP-2 full-length) [µM] | IC50 (MMP-3 catalytic domain) [µM] | IC50 (MMP-7 full-length) [µM] | IC50 (MMP-8 catalytic domain) [µM] | IC50 (MMP-9 full-length) [µM] | IC50 (MMP-12 catalytic domain) [µM] | IC50 (MMP-14 catalytic domain) [µM] |
| --- | --- | --- | --- | --- | --- | --- | --- | --- | --- | --- |
| Cc1cc(C(F)(F)CCc2ccc(C(=O)O)cc2)cc(C(=O)NCc2cccc(C(F)(F)F)c2)n1.O=C(O)C(F)(F)F [Example 2, 4-{3,3-difluoro-3-[2-methyl-6-(3-trifluoromethyl-benzylcarbamoyl)-pyridin-4-yl]-propyl}-benzoic acid monotrifluoroacetic acid salt] | 4 | 0.087 µM and 0.11 µM | > 100 | > 100 | 13 | 1.7 | > 30 | 64 | > 100 | > 100 |
| Cc1cc(C(O)CCc2ccc(C(=O)O)cc2)cc(C(=O)NCc2cccc(C(F)(F)F)c2)n1 (stereo not shown) [Example 3, 4-{3-hydroxy-3-[2-methyl-6-(3-trifluoromethyl-benzylcarbamoyl)-pyridin-4-yl]-propyl}-benzoic acid] | – | 0.062 µM | > 100 | 90 | 6 | < 10 | > 100 | < 10 | > 100 | > 100 |
| Cc1cc(C(F)CCc2ccc(C(=O)O)cc2)cc(C(=O)NCc2cccc(C(F)(F)F)c2)n1 (stereo not shown) [Example 1, 4-{3-fluoro-3-[2-methyl-6-(3-trifluoromethyl-benzylcarbamoyl)-pyridin-4-yl]-propyl}-benzoic acid] | 27 (≈ 56.9 µM) | 0.028 µM and 0.039 µM | > 100 | – | 11 | 51 | > 30 | 51 | > 100 | 56 |

Reference: patent US20080161365A1, “Methylene Derivatives” (PFIZER INC., priority 2005, published 2008)
